Assay results reported in the supplement of paper PMC10307832.

Key:
Assay in all cases: relative viability (nuclei count vs DMSO), 5 days (fraction); higher = more cells survive
Crenolanib = compound: CC1(COc2ccc3c(c2)ncn3-c2ccc3cccc(N4CCC(N)CC4)c3n2)COC1 [Crenolanib]
Method in brief: (§1)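 For viability, nuclei in each treated well were divided by nuclei in vehicle wells and the median across plates was taken. Lung cancer cell lines in 1536-well plates were pinned with five library-drug doses (not always all listed) spaced by √10, cultured 5 days without medium change, and imaged at 4× after Hoechst staining, with plates passing only at control CV below 25% and at least one doubling.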

Tivantinib = compound: O=C1NC(=O)[C@@H](c2cn3c4c(cccc24)CCC3)[C@@H]1c1c[nH]c2ccccc12 [Tivantinib]
Method in brief: as §1

Tivantinib + Pemetrexed = compound: O=C1NC(=O)[C@@H](c2cn3c4c(cccc24)CCC3)[C@@H]1c1c[nH]c2ccccc12 [Tivantinib] + Nc1nc2[nH]cc(CCc3ccc(C(=O)N[C@@H](CCC(=O)O)C(=O)O)cc3)c2c(=O)[nH]1 [Pemetrexed] (partner 0.2 µM)
Method in brief: (§2)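 Medians of duplicate plates are given as relative viability. That measure is the nuclei count in treated wells divided by the count in vehicle wells. Counts were taken on 4× images of lung cancer cell lines in 1536-well plates, 5 days after pin-tool dosing the day after seeding with one drug alone or a fixed anchor-drug dose plus five library-drug doses (not always all listed) in √10 steps.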

Crenolanib + Alpelisib = compound: CC1(COc2ccc3c(c2)ncn3-c2ccc3cccc(N4CCC(N)CC4)c3n2)COC1 [Crenolanib] + Cc1nc(NC(=O)N2CCC[C@H]2C(N)=O)sc1-c1ccnc(C(C)(C)C(F)(F)F)c1 [Alpelisib] (partner 2 µM)
Method in brief: as §2

Row | Cell Line | relative viability (Crenolanib; 0.01 µM) | relative viability (Crenolanib; 0.03162 µM) | relative viability (Crenolanib; 0.1 µM) | relative viability (Crenolanib; 0.3162 µM) | relative viability (Crenolanib; 1 µM) | relative viability (Tivantinib; 0.01 µM) | relative viability (Tivantinib; 0.03162 µM) | relative viability (Tivantinib; 0.1 µM) | relative viability (Tivantinib; 0.3162 µM) | relative viability (Tivantinib + Pemetrexed; first compound 0.01 µM) | relative viability (Tivantinib + Pemetrexed; first compound 0.03162 µM) | relative viability (Tivantinib + Pemetrexed; first compound 0.1 µM) | relative viability (Tivantinib + Pemetrexed; first compound 0.3162 µM) | relative viability (Crenolanib + Alpelisib; first compound 0.01 µM) | relative viability (Crenolanib + Alpelisib; first compound 0.03162 µM) | relative viability (Crenolanib + Alpelisib; first compound 0.1 µM) | relative viability (Crenolanib + Alpelisib; first compound 0.3162 µM) | relative viability (Crenolanib + Alpelisib; first compound 1 µM)
1 | 201T | 0.97 | 0.983 | 0.972 | 0.988 | 1.01 | 0.966 | 0.938 | 0.924 | 1.01 | 0.328 | 0.281 | 0.357 | 0.319 | 1.01 | 1.02 | 0.998 | 1.05 | 1.05
2 | A549 | 1.05 | 0.977 | 0.959 | 1.12 | 0.949 | 0.993 | 0.979 | 0.793 | 0.992 |  |  |  |  | 0.808 | 0.795 | 0.743 | 0.798 | 0.747
3 | A-427 | 0.953 | 0.969 | 0.976 | 0.948 | 0.927 | 0.959 | 0.978 | 0.976 | 1.02 | 1.01 | 1.06 | 0.99 | 0.961 | 1.06 | 1.1 | 1.02 | 1.12 | 0.977
4 | ABC-1 | 1.08 | 0.876 | 0.855 | 0.985 | 0.795 | 0.887 | 0.98 | 0.821 | 0.805 |  |  |  |  | 1.06 | 1.13 | 0.772 | 0.999 | 0.898
5 | BEN | 0.989 | 0.877 | 0.962 | 0.988 | 0.965 | 1 | 0.854 | 0.873 | 0.786 | 0.724 | 0.71 | 0.636 | 0.684 | 0.917 | 0.895 | 0.904 | 0.972 | 0.97
6 | CAL-12T | 1.07 | 0.948 | 0.984 | 1.05 | 0.992 | 1.1 | 0.853 | 0.969 | 0.627 | 1.11 | 1.3 | 1.18 | 1.21 | 1.33 | 1.12 | 1.21 | 1.49 | 1.2
7 | COR-L23 | 1.04 | 1.02 | 0.952 | 1.04 | 0.915 | 1.06 | 0.933 | 0.942 | 1.11 | 0.194 | 0.195 | 0.204 | 0.195 | 0.854 | 0.78 | 0.602 | 0.966 | 0.731
8 | COR-L 105 | 1.03 | 0.953 | 0.852 | 0.963 | 0.915 | 0.912 | 0.734 | 0.892 | 0.537 | 1.02 | 1.05 | 1.08 | 0.696 | 1.02 | 1.25 | 0.811 | 1.03 | 1.02
9 | Calu-6 | 1.1 | 0.992 | 0.978 | 1.08 | 0.959 | 0.989 | 1.03 | 0.977 | 0.989 |  |  |  |  | 1.01 | 0.92 | 1 | 1.17 | 1.12
10 | ChaGo-K-1 | 0.933 | 0.977 | 0.941 | 0.931 | 0.937 | 0.982 | 1.01 | 0.968 | 0.909 | 0.264 | 0.254 | 0.264 | 0.251 |  |  |  |  | 
11 | EBC-1 | 1.06 | 0.961 | 0.989 | 1.03 | 1.03 | 1.05 | 0.859 | 0.933 | 0.994 |  |  |  |  | 0.89 | 0.78 | 0.868 | 0.798 | 0.845
12 | IA-LM | 1.1 | 0.888 | 0.852 | 1.07 | 1.1 | 0.956 | 0.897 | 0.864 | 0.978 |  |  |  |  | 0.786 | 0.819 | 0.75 | 0.898 | 0.854
13 | NCI-H522 | 0.938 | 0.881 | 1.03 | 0.869 | 0.95 | 0.943 | 0.71 | 0.839 | 0.741 | 1.01 | 1.02 | 0.997 | 0.476 |  |  |  |  | 
14 | NCI-H727 | 0.949 | 1.05 | 0.873 | 0.943 | 0.909 | 0.941 | 0.897 | 0.802 | 0.631 |  |  |  |  | 0.609 | 0.671 | 0.563 | 0.665 | 0.627
15 | NCI-H1299 | 1.01 | 0.995 | 0.982 | 1.02 | 0.997 | 0.998 | 0.986 | 0.998 | 1.03 |  |  |  |  | 1.04 | 1.06 | 0.982 | 1.06 | 1.05
16 | NCI-H1648 | 0.878 | 0.605 | 0.871 | 0.865 | 1.07 | 0.818 | 0.863 | 0.984 | 0.323 |  | 0.67 | 0.722 | 0.486 |  |  |  |  | 
17 | NCI-H1650 | 0.927 | 0.955 | 1.03 | 0.867 | 0.876 | 0.956 | 0.813 | 0.829 | 0.849 | 0.417 | 0.4 | 0.471 | 0.315 |  |  |  |  | 
18 | NCI-H1703 | 0.948 | 0.759 | 0.534 | 0.313 | 0.21 | 1.22 | 0.923 | 0.895 | 0.795 |  |  |  |  | 0.33 | 0.378 | 0.242 | 0.174 | 0.151
19 | NCI-H2342 | 1.07 | 0.844 | 0.924 | 1.09 | 0.968 | 1.1 | 0.983 | 0.934 | 0.815 | 0.761 | 0.849 | 0.771 | 0.681 |  |  |  |  | 
20 | SW 900 | 0.813 | 0.851 | 1.06 | 0.86 | 0.645 | 1.05 | 0.709 | 0.928 | 0.878 | 0.551 | 0.497 | 0.475 | 0.515 |  |  |  |  | 
